The supplement of paper PMC8882468

The molecules below were run on HCI-012 (organoid from a breast cancer xenograft) (assay: CTG-3D luminescence at 96 h relative to day-0 seeding control (ratio to day 0); higher = more growth / less cytotoxicity; PDxO 3D drug screen, 96 h, CTG-3D normalised to day-0 seeding control.). Conditions: 1 µM; days in culture: 143.

Row | Compound | CTG-3D luminescence at 96 h
1 | CC(C)n1nc(-c2ccc3oc(N)nc3c2)c2c(N)ncnc21 [sapanisertib] | 0.799
2 | Cc1nc(-c2cn3c(n2)-c2ccc(-c4cnn(C(C)(C)C(N)=O)c4)cc2OCC3)n(C(C)C)n1 [taselisib] | 1.21
3 | Cc1cc(Nc2ncnc3ccc(NC4=NC(C)(C)CO4)cc23)ccc1Oc1ccn2ncnc2c1 [tucatinib] | 2.43
4 | CS(=O)(=O)c1ccc(C(=O)Nc2ccc(Cl)c(-c3ccccn3)c2)c(Cl)c1 [vismodegib] | 2.42
5 | CNC(=O)c1cccc(-c2ccc3c(N4CCOC[C@@H]4C)nc(N4CCOC[C@@H]4C)nc3n2)c1 [vistusertib] | 1.14

Same assay, conditions: 1 µM; days in culture: 162

Row | Compound | CTG-3D luminescence at 96 h
6 | CC(C)n1nc(-c2ccc3oc(N)nc3c2)c2c(N)ncnc21 [sapanisertib] | 0.748
7 | Cc1nc(-c2cn3c(n2)-c2ccc(-c4cnn(C(C)(C)C(N)=O)c4)cc2OCC3)n(C(C)C)n1 [taselisib] | 1.1
8 | Cc1cc(Nc2ncnc3ccc(NC4=NC(C)(C)CO4)cc23)ccc1Oc1ccn2ncnc2c1 [tucatinib] | 2.71
9 | CS(=O)(=O)c1ccc(C(=O)Nc2ccc(Cl)c(-c3ccccn3)c2)c(Cl)c1 [vismodegib] | 2.4
10 | CNC(=O)c1cccc(-c2ccc3c(N4CCOC[C@@H]4C)nc(N4CCOC[C@@H]4C)nc3n2)c1 [vistusertib] | 1.21

Same assay, conditions: 1 µM; days in culture: 201

Row | Compound | CTG-3D luminescence at 96 h
11 | CC(C)n1nc(-c2ccc3oc(N)nc3c2)c2c(N)ncnc21 [sapanisertib] | 1.37
12 | Cc1nc(-c2cn3c(n2)-c2ccc(-c4cnn(C(C)(C)C(N)=O)c4)cc2OCC3)n(C(C)C)n1 [taselisib] | 1.56
13 | Cc1cc(Nc2ncnc3ccc(NC4=NC(C)(C)CO4)cc23)ccc1Oc1ccn2ncnc2c1 [tucatinib] | 2.34
14 | CS(=O)(=O)c1ccc(C(=O)Nc2ccc(Cl)c(-c3ccccn3)c2)c(Cl)c1 [vismodegib] | 2.33
15 | CNC(=O)c1cccc(-c2ccc3c(N4CCOC[C@@H]4C)nc(N4CCOC[C@@H]4C)nc3n2)c1 [vistusertib] | 1.42

Same assay, conditions: 10 µM; days in culture: 143

Row | Compound | CTG-3D luminescence at 96 h
16 | CC(C)n1nc(-c2ccc3oc(N)nc3c2)c2c(N)ncnc21 [sapanisertib] | 0.586
17 | Cc1nc(-c2cn3c(n2)-c2ccc(-c4cnn(C(C)(C)C(N)=O)c4)cc2OCC3)n(C(C)C)n1 [taselisib] | 0.59
18 | Cc1cc(Nc2ncnc3ccc(NC4=NC(C)(C)CO4)cc23)ccc1Oc1ccn2ncnc2c1 [tucatinib] | 1.99
19 | CS(=O)(=O)c1ccc(C(=O)Nc2ccc(Cl)c(-c3ccccn3)c2)c(Cl)c1 [vismodegib] | 2.55
20 | CNC(=O)c1cccc(-c2ccc3c(N4CCOC[C@@H]4C)nc(N4CCOC[C@@H]4C)nc3n2)c1 [vistusertib] | 0.875

Same assay, conditions: 10 µM; days in culture: 162

Row | Compound | CTG-3D luminescence at 96 h
21 | CC(C)n1nc(-c2ccc3oc(N)nc3c2)c2c(N)ncnc21 [sapanisertib] | 0.846
22 | Cc1nc(-c2cn3c(n2)-c2ccc(-c4cnn(C(C)(C)C(N)=O)c4)cc2OCC3)n(C(C)C)n1 [taselisib] | 0.703
23 | Cc1cc(Nc2ncnc3ccc(NC4=NC(C)(C)CO4)cc23)ccc1Oc1ccn2ncnc2c1 [tucatinib] | 2.41
24 | CS(=O)(=O)c1ccc(C(=O)Nc2ccc(Cl)c(-c3ccccn3)c2)c(Cl)c1 [vismodegib] | 2.69
25 | CNC(=O)c1cccc(-c2ccc3c(N4CCOC[C@@H]4C)nc(N4CCOC[C@@H]4C)nc3n2)c1 [vistusertib] | 1.06

Same assay, conditions: 10 µM; days in culture: 201

Row | Compound | CTG-3D luminescence at 96 h
26 | CC(C)n1nc(-c2ccc3oc(N)nc3c2)c2c(N)ncnc21 [sapanisertib] | 0.293
27 | Cc1nc(-c2cn3c(n2)-c2ccc(-c4cnn(C(C)(C)C(N)=O)c4)cc2OCC3)n(C(C)C)n1 [taselisib] | 0.385
28 | Cc1cc(Nc2ncnc3ccc(NC4=NC(C)(C)CO4)cc23)ccc1Oc1ccn2ncnc2c1 [tucatinib] | 1.37
29 | CS(=O)(=O)c1ccc(C(=O)Nc2ccc(Cl)c(-c3ccccn3)c2)c(Cl)c1 [vismodegib] | 1.8
30 | CNC(=O)c1cccc(-c2ccc3c(N4CCOC[C@@H]4C)nc(N4CCOC[C@@H]4C)nc3n2)c1 [vistusertib] | 0.57

Same assay, conditions: 100 µM; days in culture: 143

Row | Compound | CTG-3D luminescence at 96 h
31 | CC(C)n1nc(-c2ccc3oc(N)nc3c2)c2c(N)ncnc21 [sapanisertib] | 0.181
32 | Cc1nc(-c2cn3c(n2)-c2ccc(-c4cnn(C(C)(C)C(N)=O)c4)cc2OCC3)n(C(C)C)n1 [taselisib] | 0.046
33 | Cc1cc(Nc2ncnc3ccc(NC4=NC(C)(C)CO4)cc23)ccc1Oc1ccn2ncnc2c1 [tucatinib] | 0.0289
34 | CS(=O)(=O)c1ccc(C(=O)Nc2ccc(Cl)c(-c3ccccn3)c2)c(Cl)c1 [vismodegib] | 0.427
35 | CNC(=O)c1cccc(-c2ccc3c(N4CCOC[C@@H]4C)nc(N4CCOC[C@@H]4C)nc3n2)c1 [vistusertib] | 0.292

Same assay, conditions: 100 µM; days in culture: 162

Row | Compound | CTG-3D luminescence at 96 h
36 | CC(C)n1nc(-c2ccc3oc(N)nc3c2)c2c(N)ncnc21 [sapanisertib] | 0.197
37 | Cc1nc(-c2cn3c(n2)-c2ccc(-c4cnn(C(C)(C)C(N)=O)c4)cc2OCC3)n(C(C)C)n1 [taselisib] | 0.0208
38 | Cc1cc(Nc2ncnc3ccc(NC4=NC(C)(C)CO4)cc23)ccc1Oc1ccn2ncnc2c1 [tucatinib] | 0.0168
39 | CS(=O)(=O)c1ccc(C(=O)Nc2ccc(Cl)c(-c3ccccn3)c2)c(Cl)c1 [vismodegib] | 0.492
40 | CNC(=O)c1cccc(-c2ccc3c(N4CCOC[C@@H]4C)nc(N4CCOC[C@@H]4C)nc3n2)c1 [vistusertib] | 0.318

Same assay, conditions: 100 µM; days in culture: 201

Row | Compound | CTG-3D luminescence at 96 h
41 | CC(C)n1nc(-c2ccc3oc(N)nc3c2)c2c(N)ncnc21 [sapanisertib] | 0.0781
42 | Cc1nc(-c2cn3c(n2)-c2ccc(-c4cnn(C(C)(C)C(N)=O)c4)cc2OCC3)n(C(C)C)n1 [taselisib] | 0.0205
43 | Cc1cc(Nc2ncnc3ccc(NC4=NC(C)(C)CO4)cc23)ccc1Oc1ccn2ncnc2c1 [tucatinib] | 0.053
44 | CS(=O)(=O)c1ccc(C(=O)Nc2ccc(Cl)c(-c3ccccn3)c2)c(Cl)c1 [vismodegib] | 0.943
45 | CNC(=O)c1cccc(-c2ccc3c(N4CCOC[C@@H]4C)nc(N4CCOC[C@@H]4C)nc3n2)c1 [vistusertib] | 0.745

Same assay, conditions: 625 fM; days in culture: 143

Row | Compound | CTG-3D luminescence at 96 h
46 | CC(C)n1nc(-c2ccc3oc(N)nc3c2)c2c(N)ncnc21 [sapanisertib] | 1.68
47 | Cc1nc(-c2cn3c(n2)-c2ccc(-c4cnn(C(C)(C)C(N)=O)c4)cc2OCC3)n(C(C)C)n1 [taselisib] | 1.82
48 | Cc1cc(Nc2ncnc3ccc(NC4=NC(C)(C)CO4)cc23)ccc1Oc1ccn2ncnc2c1 [tucatinib] | 2.05
49 | CS(=O)(=O)c1ccc(C(=O)Nc2ccc(Cl)c(-c3ccccn3)c2)c(Cl)c1 [vismodegib] | 1.88
50 | CNC(=O)c1cccc(-c2ccc3c(N4CCOC[C@@H]4C)nc(N4CCOC[C@@H]4C)nc3n2)c1 [vistusertib] | 1.87

Same assay, conditions: 625 fM; days in culture: 162

Row | Compound | CTG-3D luminescence at 96 h
51 | CC(C)n1nc(-c2ccc3oc(N)nc3c2)c2c(N)ncnc21 [sapanisertib] | 2.82
52 | Cc1nc(-c2cn3c(n2)-c2ccc(-c4cnn(C(C)(C)C(N)=O)c4)cc2OCC3)n(C(C)C)n1 [taselisib] | 2.93
53 | Cc1cc(Nc2ncnc3ccc(NC4=NC(C)(C)CO4)cc23)ccc1Oc1ccn2ncnc2c1 [tucatinib] | 2.94
54 | CS(=O)(=O)c1ccc(C(=O)Nc2ccc(Cl)c(-c3ccccn3)c2)c(Cl)c1 [vismodegib] | 3
55 | CNC(=O)c1cccc(-c2ccc3c(N4CCOC[C@@H]4C)nc(N4CCOC[C@@H]4C)nc3n2)c1 [vistusertib] | 3.34

Same assay, conditions: 625 fM; days in culture: 201

Row | Compound | CTG-3D luminescence at 96 h
56 | CC(C)n1nc(-c2ccc3oc(N)nc3c2)c2c(N)ncnc21 [sapanisertib] | 1.73
57 | Cc1nc(-c2cn3c(n2)-c2ccc(-c4cnn(C(C)(C)C(N)=O)c4)cc2OCC3)n(C(C)C)n1 [taselisib] | 1.75
58 | Cc1cc(Nc2ncnc3ccc(NC4=NC(C)(C)CO4)cc23)ccc1Oc1ccn2ncnc2c1 [tucatinib] | 1.83
59 | CS(=O)(=O)c1ccc(C(=O)Nc2ccc(Cl)c(-c3ccccn3)c2)c(Cl)c1 [vismodegib] | 1.59
60 | CNC(=O)c1cccc(-c2ccc3c(N4CCOC[C@@H]4C)nc(N4CCOC[C@@H]4C)nc3n2)c1 [vistusertib] | 1.48

The molecules below were run on HCI-024 (organoid from a breast cancer xenograft) in the same assay as above. Conditions: 12.5 pM; days in culture: 105.

Row | Compound | CTG-3D luminescence at 96 h
61 | CC(C)n1nc(-c2ccc3oc(N)nc3c2)c2c(N)ncnc21 [sapanisertib] | 1.5
62 | Cc1nc(-c2cn3c(n2)-c2ccc(-c4cnn(C(C)(C)C(N)=O)c4)cc2OCC3)n(C(C)C)n1 [taselisib] | 1.47
63 | Cc1cc(Nc2ncnc3ccc(NC4=NC(C)(C)CO4)cc23)ccc1Oc1ccn2ncnc2c1 [tucatinib] | 1.67
64 | CS(=O)(=O)c1ccc(C(=O)Nc2ccc(Cl)c(-c3ccccn3)c2)c(Cl)c1 [vismodegib] | 1.78
65 | CNC(=O)c1cccc(-c2ccc3c(N4CCOC[C@@H]4C)nc(N4CCOC[C@@H]4C)nc3n2)c1 [vistusertib] | 1.75

Same assay, conditions: 12.5 pM; days in culture: 122

Row | Compound | CTG-3D luminescence at 96 h
66 | CC(C)n1nc(-c2ccc3oc(N)nc3c2)c2c(N)ncnc21 [sapanisertib] | 2.28
67 | Cc1nc(-c2cn3c(n2)-c2ccc(-c4cnn(C(C)(C)C(N)=O)c4)cc2OCC3)n(C(C)C)n1 [taselisib] | 2.21
68 | Cc1cc(Nc2ncnc3ccc(NC4=NC(C)(C)CO4)cc23)ccc1Oc1ccn2ncnc2c1 [tucatinib] | 1.99
69 | CS(=O)(=O)c1ccc(C(=O)Nc2ccc(Cl)c(-c3ccccn3)c2)c(Cl)c1 [vismodegib] | 1.39
70 | CNC(=O)c1cccc(-c2ccc3c(N4CCOC[C@@H]4C)nc(N4CCOC[C@@H]4C)nc3n2)c1 [vistusertib] | 2.25

Same assay, conditions: 12.5 pM; days in culture: 163

Row | Compound | CTG-3D luminescence at 96 h
71 | CC(C)n1nc(-c2ccc3oc(N)nc3c2)c2c(N)ncnc21 [sapanisertib] | 2.15
72 | Cc1nc(-c2cn3c(n2)-c2ccc(-c4cnn(C(C)(C)C(N)=O)c4)cc2OCC3)n(C(C)C)n1 [taselisib] | 1.36
73 | Cc1cc(Nc2ncnc3ccc(NC4=NC(C)(C)CO4)cc23)ccc1Oc1ccn2ncnc2c1 [tucatinib] | 1.68
74 | CS(=O)(=O)c1ccc(C(=O)Nc2ccc(Cl)c(-c3ccccn3)c2)c(Cl)c1 [vismodegib] | 1.93
75 | CNC(=O)c1cccc(-c2ccc3c(N4CCOC[C@@H]4C)nc(N4CCOC[C@@H]4C)nc3n2)c1 [vistusertib] | 1.9

Same assay, conditions: 0.00025 µM; days in culture: 105

Row | Compound | CTG-3D luminescence at 96 h
76 | CC(C)n1nc(-c2ccc3oc(N)nc3c2)c2c(N)ncnc21 [sapanisertib] | 1.82
77 | Cc1nc(-c2cn3c(n2)-c2ccc(-c4cnn(C(C)(C)C(N)=O)c4)cc2OCC3)n(C(C)C)n1 [taselisib] | 1.44
78 | Cc1cc(Nc2ncnc3ccc(NC4=NC(C)(C)CO4)cc23)ccc1Oc1ccn2ncnc2c1 [tucatinib] | 1.75
79 | CS(=O)(=O)c1ccc(C(=O)Nc2ccc(Cl)c(-c3ccccn3)c2)c(Cl)c1 [vismodegib] | 1.57
80 | CNC(=O)c1cccc(-c2ccc3c(N4CCOC[C@@H]4C)nc(N4CCOC[C@@H]4C)nc3n2)c1 [vistusertib] | 1.79

Same assay, conditions: 0.00025 µM; days in culture: 122

Row | Compound | CTG-3D luminescence at 96 h
81 | CC(C)n1nc(-c2ccc3oc(N)nc3c2)c2c(N)ncnc21 [sapanisertib] | 2.85
82 | Cc1nc(-c2cn3c(n2)-c2ccc(-c4cnn(C(C)(C)C(N)=O)c4)cc2OCC3)n(C(C)C)n1 [taselisib] | 2.49
83 | Cc1cc(Nc2ncnc3ccc(NC4=NC(C)(C)CO4)cc23)ccc1Oc1ccn2ncnc2c1 [tucatinib] | 2.82
84 | CS(=O)(=O)c1ccc(C(=O)Nc2ccc(Cl)c(-c3ccccn3)c2)c(Cl)c1 [vismodegib] | 1.99
85 | CNC(=O)c1cccc(-c2ccc3c(N4CCOC[C@@H]4C)nc(N4CCOC[C@@H]4C)nc3n2)c1 [vistusertib] | 2.36

Same assay, conditions: 0.00025 µM; days in culture: 163

Row | Compound | CTG-3D luminescence at 96 h
86 | CC(C)n1nc(-c2ccc3oc(N)nc3c2)c2c(N)ncnc21 [sapanisertib] | 1.91
87 | Cc1nc(-c2cn3c(n2)-c2ccc(-c4cnn(C(C)(C)C(N)=O)c4)cc2OCC3)n(C(C)C)n1 [taselisib] | 2.13
88 | Cc1cc(Nc2ncnc3ccc(NC4=NC(C)(C)CO4)cc23)ccc1Oc1ccn2ncnc2c1 [tucatinib] | 1.9
89 | CS(=O)(=O)c1ccc(C(=O)Nc2ccc(Cl)c(-c3ccccn3)c2)c(Cl)c1 [vismodegib] | 2.3
90 | CNC(=O)c1cccc(-c2ccc3c(N4CCOC[C@@H]4C)nc(N4CCOC[C@@H]4C)nc3n2)c1 [vistusertib] | 2.22
